{"source": "patent US7759345B2", "about": "“Antitumoral derivatives of ET-743” (priority 2001, dated 2010)", "key": {"[1]": {"system": "HT-29", "experiment": "Inhibition of cell growth by counting cells, HT-29", "format": "cell-based, human", "settings": "Homo sapiens, HT-29, 72 h; three days of incubation; read-out: IC50 (molar) HT-29", "description": "(§1) 1°.—Inhibition of Cell Growth by Counting Cells.\n(§2) This form of the assay employs 24 well multidishes of 16 mm diameter (Bergeron, 1984; Schroeder, 1981). The tumor cell lines employed are: P-388 (ATCC CCL 46), suspension culture of a lymphoid neoplasm from a DBA/2 mouse; A-549 (ATCC CCL 185), monolayer culture of a human lung carcinoma; HT-29 (ATCC HTB-38), monolayer culture of a human colon carcinoma; MEL-28 (ATCC HTB-72), monolayer culture of a human melanoma and DU-145 (ATCC HTB-81), monolayer culture of a human prostate carcinoma.\n(§3) Cells were maintained, in logarithmic phase of growth in Eagle's Minimum Essential Medium, with Earle's Balanced Salts, with non-essential amino acids, with 2.0 mM L-Glutamine, without sodium bicarbonate (EMEM/neaa), supplemented with 10% Fetal Calf Serum (FCS), 10^−2 M. sodium bicarbonate and 0.1 U/l penicillin G+0.1 g/l streptomycin sulfate. For the experiments, cells are harvested from subconfluent cultures using trypsin and resuspended in fresh medium before plating.\n(§4) A-549, HT-29, MEL-28 and DU-145 cells were seeded into 16 mm diameter wells at 1×10^4 cells per well in 1 ml aliquots of EMEM 5% FCS containing different concentrations of the sample to be tested. A separate set of cultures without drug was seeded as control of growth, to ensure that cells remained in exponential phase of growth. All determinations are carrying out in duplicate. After three days of incubation at 37° C., 5% CO2 in a 98% humid atmosphere cells were stained with 0.1% crystal violet. An approximately IC50 was determined by comparing the growth in wells with drug to the growth in wells control.\n(§5) For quantifying the activity, after the incubation time, cells are trypsinized and counted in a Coulter Counter ZM. All counts (net cells per well), represent the average of duplicate wells. % G, percent of growth relative to cultures without drug. The results of these assays are used to generate dose-response curves from which more precise IC50 values are determined (sample concentration which produces 50% cell growth inhibition).\n(§6) Obtained results may predict the usefulness of a certain drug as a potential cancer treatment. For this technique, compounds which show IC50 values smaller than 1 μg/ml are selected to continue with further studies. IC50's data allow to predict that not only could a drug be cystostatic, but also it could have a potential in terms of tumor reduction."}, "[2]": {"system": "A-549", "experiment": "Inhibition of cell growth by counting cells, A-549", "format": "cell-based, human", "settings": "Homo sapiens, A549, 72 h; three days of incubation; read-out: IC50 (molar) A-549", "description": "as §1, §2, §3, §4, §5, §6"}, "[3]": {"system": "P-388", "experiment": "Inhibition of cell growth by counting cells, P-388", "format": "cell-based, mouse", "settings": "Mus musculus, P388, 72 h; three days of incubation; read-out: IC50 (molar) P-388", "description": "as §1, §2, §3\nP-388 cells were seeded into 16 mm diameter wells at 1×10^4 cells per well in 1 ml aliquots of EMEM 5% FCS containing different concentrations of the sample to be tested. A separate set of cultures without drug was seeded as control of growth, to ensure that cells remained in exponential phase of growth. All determinations are carrying out in duplicate.\nas §5, §6"}, "[4]": {"system": "MEL-28", "experiment": "Inhibition of cell growth by counting cells, MEL-28", "format": "cell-based, human", "settings": "Homo sapiens, SK-MEL-28, 72 h; three days of incubation; read-out: IC50 (molar) MEL-28", "description": "as §1, §2, §3, §4, §5, §6"}}, "data": [{"compound": "COc1cc2c(cc1O)CCN[C@]21CS[C@@H]2c3c(OCc4ccccc4)c(C)c4c(c3[C@H](COC1=O)N1C2[C@H]2c3c(cc(C)c(OC)c3O)C[C@@H]([C@@H]1O)N2C)OCO4", "note": "(stereo partly drawn) [Compound 180]", "values": [{"measurement": "IC50", "setting": "[1]", "value": 0.618, "unit": "nM"}, {"measurement": "IC50", "setting": "[2]", "value": 0.618, "unit": "nM"}]}, {"compound": "COc1cc2c(cc1O)CCN[C@]21CS[C@@H]2c3c(OCc4ccccc4)c(C)c4c(c3[C@H](COC1=O)N1C2[C@H]2c3c(cc(C)c(OC)c3OCc3ccccc3)C[C@@H]([C@@H]1O)N2C)OCO4", "note": "(stereo partly drawn) [Compound 181]", "values": [{"measurement": "IC50", "setting": "[1]", "value": 11.1, "unit": "nM"}, {"measurement": "IC50", "setting": "[2]", "value": 11.1, "unit": "nM"}]}, {"compound": "COc1cc2c(cc1O)CCN[C@]21CS[C@@H]2c3c(O)c(C)c4c(c3[C@H](COC1=O)N1C2[C@@H]2N[C@@H](Cc3cc(C)c(OC)c(O)c32)[C@@H]1C#N)OCO4", "note": "(stereo partly drawn) [Compound 184]", "values": [{"measurement": "IC50", "setting": "[3]", "value": 0.699, "unit": "nM"}, {"measurement": "IC50", "setting": "[4]", "value": 0.699, "unit": "nM"}, {"measurement": "IC50", "setting": "[1]", "value": 0.699, "unit": "nM"}, {"measurement": "IC50", "setting": "[2]", "value": 0.699, "unit": "nM"}]}, {"compound": "COc1cc2c(cc1O)CCN(C)[C@]21CS[C@@H]2c3c(OC(C)=O)c(C)c4c(c3[C@H](COC1=O)N1C[C@@H]3Cc5cc(C)c(OC)c(O)c5[C@H](C21)N3C)OCO4", "note": "(stereo partly drawn) [Compound 185]", "values": [{"measurement": "IC50", "setting": "[3]", "value": 13.2, "unit": "nM"}, {"measurement": "IC50", "setting": "[4]", "value": 13.2, "unit": "nM"}, {"measurement": "IC50", "setting": "[1]", "value": 13.2, "unit": "nM"}, {"measurement": "IC50", "setting": "[2]", "value": 13.2, "unit": "nM"}]}, {"compound": "COc1cc2c(cc1O)CCN[C@]21CS[C@@H]2c3c(OC(C)=O)c(C)c4c(c3[C@H](COC1=O)N1C2[C@@H]2N[C@@H](Cc3cc(C)c(OC)c(O)c32)[C@@H]1C#N)OCO4", "note": "(stereo partly drawn) [Compound 186]", "values": [{"measurement": "IC50", "setting": "[3]", "value": 0.159, "unit": "nM"}, {"measurement": "IC50", "setting": "[4]", "value": 0.159, "unit": "nM"}, {"measurement": "IC50", "setting": "[1]", "value": 0.159, "unit": "nM"}, {"measurement": "IC50", "setting": "[2]", "value": 0.159, "unit": "nM"}]}, {"compound": "C=CCOC(=O)Oc1cc2c(cc1OC)[C@@]1(CS[C@@H]3c4c(OC(C)=O)c(C)c5c(c4[C@H](COC1=O)N1C3[C@H]3c4c(cc(C)c(OC)c4O)C[C@@H]([C@@H]1C#N)N3C(=O)OCC=C)OCO5)NCC2", "note": "(stereo partly drawn) [Compound 187]", "values": [{"measurement": "IC50", "setting": "[3]", "value": 1.08, "unit": "nM"}, {"measurement": "IC50", "setting": "[4]", "value": 1.08, "unit": "nM"}, {"measurement": "IC50", "setting": "[1]", "value": 1.08, "unit": "nM"}, {"measurement": "IC50", "setting": "[2]", "value": 1.08, "unit": "nM"}]}, {"compound": "COc1cc2c(cc1O)CCN[C@]21CS[C@@H]2c3c(OC(C)=O)c(C)c4c(c3[C@H](COC1=O)N1C2[C@H]2c3c(cc(C)c(OC)c3O)C[C@@H]([C@@H]1C#N)N2C(=O)OC(C)(C)C)OCO4", "note": "(stereo partly drawn) [Compound 188]", "values": [{"measurement": "IC50", "setting": "[3]", "value": 0.583, "unit": "nM"}, {"measurement": "IC50", "setting": "[4]", "value": 0.583, "unit": "nM"}, {"measurement": "IC50", "setting": "[1]", "value": 0.583, "unit": "nM"}, {"measurement": "IC50", "setting": "[2]", "value": 0.583, "unit": "nM"}]}, {"compound": "COc1cc2c(cc1OC(=O)OC(C)(C)C)CCN[C@]21CS[C@@H]2c3c(OC(C)=O)c(C)c4c(c3[C@H](COC1=O)N1C2[C@@H]2N[C@@H](Cc3cc(C)c(OC)c(O)c32)[C@@H]1C#N)OCO4", "note": "(stereo partly drawn) [Compound 189]", "values": [{"measurement": "IC50", "setting": "[3]", "value": 0.583, "unit": "nM"}, {"measurement": "IC50", "setting": "[4]", "value": 0.583, "unit": "nM"}, {"measurement": "IC50", "setting": "[1]", "value": 0.583, "unit": "nM"}, {"measurement": "IC50", "setting": "[2]", "value": 0.583, "unit": "nM"}]}, {"compound": "COc1cc2c(cc1OC(=O)OC(C)(C)C)CCN[C@]21CS[C@@H]2c3c(OC(C)=O)c(C)c4c(c3[C@H](COC1=O)N1C2[C@H]2c3c(cc(C)c(OC)c3O)C[C@@H]([C@@H]1C#N)N2C(=O)OC(C)(C)C)OCO4", "note": "(stereo partly drawn) [Compound 190]", "values": [{"measurement": "IC50", "setting": "[3]", "value": 5.22, "unit": "nM"}, {"measurement": "IC50", "setting": "[4]", "value": 5.22, "unit": "nM"}, {"measurement": "IC50", "setting": "[1]", "value": 5.22, "unit": "nM"}, {"measurement": "IC50", "setting": "[2]", "value": 5.22, "unit": "nM"}]}, {"compound": "C=CCOc1c(OC)c(C)cc2c1[C@H]1N[C@@H](C2)[C@H](C#N)N2C1[C@@H]1SC[C@]3(NCCc4cc(O)c(OC)cc43)C(=O)OC[C@H]2c2c3c(c(C)c(OC(C)=O)c21)OCO3", "note": "(stereo partly drawn) [Compound 201]", "values": [{"measurement": "IC50", "setting": "[3]", "value": 12.6, "unit": "nM"}, {"measurement": "IC50", "setting": "[4]", "value": 15.7, "unit": "nM"}, {"measurement": "IC50", "setting": "[1]", "value": 15.7, "unit": "nM"}, {"measurement": "IC50", "setting": "[2]", "value": 15.7, "unit": "nM"}]}, {"compound": "CCCCCCCC(=O)Oc1cc2c(cc1OC)[C@@]1(CS[C@@H]3c4c(OC(C)=O)c(C)c5c(c4[C@H](COC1=O)N1C3[C@@H]3N[C@@H](Cc4cc(C)c(OC)c(OC(=O)CCCCCCC)c43)[C@@H]1O)OCO5)NCC2", "note": "(stereo partly drawn) [Compound 214]", "values": [{"measurement": "IC50", "setting": "[1]", "value": 5, "unit": "nM"}, {"measurement": "IC50", "setting": "[2]", "value": 5, "unit": "nM"}]}, {"compound": "CCCCCCCCCCCCCCCC(=O)Oc1cc2c(cc1OC)[C@@]1(CS[C@@H]3c4c(OC(C)=O)c(C)c5c(c4[C@H](COC1=O)N1C3[C@@H]3N[C@@H](Cc4cc(C)c(OC)c(OC(=O)CCCCCCCCCCCCCCC)c43)[C@@H]1O)OCO5)NCC2", "note": "(stereo partly drawn) [Compound 216]", "values": [{"measurement": "IC50", "setting": "[1]", "value": 81.6, "unit": "nM"}, {"measurement": "IC50", "setting": "[2]", "value": 81.6, "unit": "nM"}]}, {"compound": "COc1cc2c(cc1O)CCN[C@]21CS[C@@H]2c3c(OC(C)=O)c(C)c4c(c3[C@H](COC1=O)N1C2[C@H]2c3c(cc(C)c(O)c3O)C[C@@H]([C@@H]1O)N2C)OCO4", "note": "(stereo partly drawn) [Compound 221]", "values": [{"measurement": "IC50", "setting": "[1]", "value": 1.34, "unit": "nM"}, {"measurement": "IC50", "setting": "[2]", "value": 1.34, "unit": "nM"}]}]}
